This assay concerns the target SARS-CoV-2 spike S1 RBD / ACE2 interaction (S-RBD protein binding to ACE2) (Severe acute respiratory syndrome coronavirus 2, UniProt P0DTC2). The experiment in a line: biochemical.

`N=C(N)c1ccc(/N=N/Nc2ccc(C(=N)N)cc2)cc1` [DIZE] showed a half-inhibitory concentration (IC50) of 20.6 µM.

As a reminder, the IC50 is the concentration that gives 50% inhibition.

Source of the values: paper PMC9476334 (Chemico-Biological Interactions, 2022).
